Source: patent US11458200B2, “Constructs, agents, and methods for facilitated ablation of cardiac tissue” (priority 2016, dated 2022)
Entries after “also recorded” stand apart in the source; their conditions may differ.

How the values were obtained:
[1] = system: epicardium; test: Open-chest rodent survival model of epicardial RF ablation after IV quercetin; assay type: in vivo; conditions: for Lesion Depth: 10 mg/kg
Method: Using an open-chest rodent survival model and a custom-made catheter, RF was applied to the epicardium at 3 W for 20 seconds after infusion of a HSP inhibitor, intravenous quercetin (n=20, 10 mg/kg), or control (n=20). Animals were sacrificed at 1 (n=10 each) and 24 hours (n=10 each) after ablation. RFA lesions were stained and analyzed under microscopy.

[2] = system: adenocarcinoma tumor; conditions: combined quercetin and RF energy; cited from earlier work
[3] = system: myocardium; conditions: porcine model; cited from earlier work
[4] = 24 hours after RFA, 3 W for 20 seconds, IV 10 mg/kg, N 10

Row | Structure (SMILES) | ablation lesions analyzed at 1 hour after RFA ([1]; 1 hour after RFA, IV 10 mg/kg) | Volume [1, 4] [µL] | Lesion Depth [1, 4] [mm] | Lesion Depth ([1]; 24 hours after RFA, 3 W for 20 seconds, IV 10 mg/kg, N 10, listed as quercetin) [mm] | lesion volumes ([1]; 24 hours after ablation, vs 25.7±8.6 control, p=0.01) [µL] | adverse events related to HSP inhibition ([1]; IV 10 mg/kg) | microscopy of lesions compared to controls ([1]; in vivo) | HSP expression [2] | apoptosis [2] | tumor destruction [2] | ablation lesion sizes after in vivo injection [3]
1 | O=c1c(O)c(-c2ccc(O)c(O)c2)oc2cc(O)cc(O)c12 [Quercetin, 3,3′,4′,5,7-pentahydroxyflavone] | did not acutely result in larger ablation lesions | 37.6 ± 10.5 | 1.8 ± 0.3 | 1.8±0.3 | 37.6 ± 10.5 | No adverse events | larger necrotic cores and border zones | decreased HSP expression | increased apoptosis | larger tumor destruction | –
2 | [Gd] [gadolinium] | – | – | – | – | – | – | – | – | – | – | increased lesion sizes; also recorded: larger lesions
